From patent US20230263822A1, “MODULATION OF FACTOR 11 EXPRESSION” (Ionis Pharmaceuticals, Inc., priority 2008, published 2023) come the findings set out here.

The subject of one data set is human Factor 11 mRNA. The experiment in a line: Dose-dependent inhibition of human Factor 11 in HepB3 cells, lipofectin (Example 7). It counts as cell-based. The settings on record: for percent inhibition of Factor 11 mRNA relative to untreated control cells: ~16 hours. On the procedure: Cells were plated at a density of 4,000 cells per well and transfected using lipofectin reagent with 2.3 nM, 4.7 nM, 9.4 nM, 18.75 nM, 37.5 nM, and 75 nM concentrations of antisense oligonucleotide, as specified in Table 14. After a treatment period of approximately 16 hours, RNA was isolated from the cells and human Factor 11 mRNA levels were measured by quantitative real-time PCR. Human Factor 11 primer probe set RTS 2966 was used to measure mRNA levels. Factor 11 mRNA levels were adjusted according to total RNA content, as measured by RIBOGREEN. Results are presented as percent inhibition of Factor 11, relative to untreated control cells.

Data set [1] in a line: Tolerability in Sprague-Dawley rats: body weight and organ weight (Example 35). It is filed as in vivo. The settings on record: 50 mg/kg s.c. twice per week for 6 weeks; for Percent change: Body weight: percent change over the weights at the start of the study; for Percent change in organ weight: Kidney / Percent change in organ weight: Liver / Percent change in organ weight: Spleen: vs saline control, normalized to body weight. An excerpt: Urine samples were taken before the start of treatment.
The body weights are presented in Table 71 and are expressed as a percent change over the weights taken at the start of the study.

The next data set concerns Factor 11 protein. The experiment in a line: Factor 11 protein in monkey plasma by sandwich ELISA (Example 46). It counts as in vivo, cynomolgus monkeys. The settings on record: for Inhibition of Factor 11 protein relative to the PBS control (percentage reduction): 25 mg/kg subcutaneously. The method, boiled down:
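Monkeys (2 male, 2 female per group) dosed s.c. with antisense oligonucleotide at 25 mg/kg, three times weekly in week 1 then twice weekly through week 8; PBS controls. Plasma Factor 11 measured by sandwich ELISA (1:50 dilution, OPD, 490 nm); expressed as % reduction versus PBS.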
A general note: In an ELISA, binding on a coated surface is turned into a signal by an enzyme label.

Data set [2] in a line: Viscosity of ISIS antisense oligonucleotides, micro-viscometer at 25 °C (Example 47). It is filed as physicochemical. The note with it: for Concentration: concentration of the viscosity sample, UV reading at 260 nM at 85° C.; for Viscosity: in water, micro-viscometer at 25° C., at the concentration of the same line. The method, boiled down:
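Oligonucleotide (32-35 mg) was dissolved in 120 μL water by heating at 50° C, and viscosity was measured by micro-viscometer at 25° C. Concentration was checked by UV at 260 nm at 85° C on a dilution in water. Screening cut-off: >40 cP at 165-185 mg/mL.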

The subject of a further data set is blood coagulation. The experiment in a line: PT and aPTT assay in cynomolgus monkeys (Example 46). It is filed as in vivo. The note with it: for PT ratio (INR) / aPTT ratio relative to PBS group: platelet poor plasma, relative to PBS group. On the procedure: Groups, each consisting of two male and two female monkeys, were injected subcutaneously with 25 mg/kg of ISIS 416850, ISIS 449709, ISIS 445522, ISIS 449710, ISIS 449707, ISIS 449711, ISIS 449708, 416858, and ISIS 445531. Antisense oligonucleotide was administered to the monkeys at 25 mg/kg three times per week for week 1 and 25 mg/kg twice per week for weeks 2 to 8. A control group, consisting of two male and two female monkeys was injected subcutaneously with PBS according to the same dosing regimen. Body weights were taken 14 days and 7 days before the start of treatment and were then measured weekly throughout the treatment period. Blood samples were collected 14 days and 5 days before the start of treatment and subsequently several times during the dosing regimen for PT and aPTT measurements, and measurement of various hematologic factors. On day 55, the monkeys were euthanized by exsanguination while under deep anesthesia, and organs harvested for further analysis.
PT and aPTT were measured using platelet poor plasma (PPP) from […] treated with ISIS oligonucleotides. PT and aPTT values are provided in Tables 148 and 149 and are reported as International Normalized Ratio (INR) values. INR values for PT and aPTT were determined by dividing the PT or aPTT value for each experimental group by the PT or aPTT for the PBS treated group. This ratio was then raised to the power of the International Sensitivity Index (ISI) of the tissue factor used. […] Therefore, antisense reduction of Factor 11 with these ISIS oligonucleotides is useful for inhibiting the formation of a thrombus or clot in response to an abnormal vessel wall, but not in response to tissue injury.

For data set [3] the following is noted: mouse, in vivo, sc, 50 mg/kg.
For data set [4] the following is noted: mouse, in vivo, sc, 50 mg/kg. This is another data set of the same source.
A short description of data set [5]: Tolerability in CD1 mice: kidney function, BUN (Example 37). The note with it: plasma, 50 mg/kg s.c. twice per week for 6 weeks.

On to “416850 (antisense TGCACAGTTTCTGGCAGGCC; 5-10-5 gapmer, further chemistry not given here) [compound 416850]”, for which, in the data set with human Factor 11 mRNA, the IC50 – broadly, the concentration that inhibits the measured activity by half – worked out at 13 nM. For the same substance, the “percent inhibition of Factor 11 mRNA relative to untreated control cells” value with human Factor 11 mRNA (2.3 nM) stood at 22%; with human Factor 11 mRNA (4.7 nM), 32%; with human Factor 11 mRNA (9.4 nM), 43%; in the data set on human Factor 11 mRNA (18.75 nM) it was 56%; in the data set with human Factor 11 mRNA (37.5 nM), 75%; in the data set with human Factor 11 mRNA (75 nM), 60%. Besides, the “Percent change: Body weight” value in data set [1] is recorded as −33%. For the same substance, the “Percent change in organ weight: Kidney” value in data set [1] is reported as “+47%”. Moreover, the “Percent change in organ weight: Liver” value in data set [1] is recorded as “+23%”. Further, in data set [1], the “Percent change in organ weight: Spleen” value is reported as “+354%”. Further, the “Inhibition of Factor 11 protein relative to the PBS control (percentage reduction)” value with Factor 11 protein (Day 10, plasma) stood at 20%; in the data set with Factor 11 protein (Day 17, plasma) it was 31%; in the data set with Factor 11 protein (Day 24, plasma), 38%; in the data set on Factor 11 protein (Day 31, plasma) it was 52%; with Factor 11 protein (Day 38, plasma), 51%; with Factor 11 protein (Day 45, plasma) it was 53%. The “Inhibition of Factor 11 protein relative to the PBS control (percentage reduction)” value is listed as 53% in the data set on Factor 11 protein (Day 52, plasma); 58% in the data set on Factor 11 protein (Day 55, plasma); 0% with Factor 11 protein (Day −5, plasma); 0% with Factor 11 protein (Day −14, plasma). The substance also registered a Concentration in data set [2] of 152 mg/mL. The substance further returned a Viscosity in data set [2] of 67 cP.

Substance “416858 (antisense ACGGCATTGGTGCACAGTTT; 5-10-5 gapmer, further chemistry not given here) [compound 416858]” showed a concentration for half-maximal inhibition (IC50) in the data set with human Factor 11 mRNA of 12 nM. The “percent inhibition of Factor 11 mRNA relative to untreated control cells” value in the data set with human Factor 11 mRNA (2.3 nM) was found to be 17%; in the data set with human Factor 11 mRNA (4.7 nM), 34%; in the data set with human Factor 11 mRNA (9.4 nM), 43%; in the data set with human Factor 11 mRNA (18.75 nM) it was 57%; with human Factor 11 mRNA (37.5 nM), 74%; in the data set on human Factor 11 mRNA (75 nM) it was 62%. In addition, the “Percent change: Body weight” value in data set [1] is given as −21%. In data set [1], the “Percent change in organ weight: Kidney” value was “+5%”. Moreover, the “Percent change in organ weight: Liver” value in data set [1] was “+8%”. For the same substance, the “Percent change in organ weight: Spleen” value in data set [1] is “+187%”. For the same substance, the “Inhibition of Factor 11 protein relative to the PBS control (percentage reduction)” value with Factor 11 protein (Day 10, plasma) was found to be 36%; with Factor 11 protein (Day 17, plasma), 49%; with Factor 11 protein (Day 24, plasma), 62%; with Factor 11 protein (Day 31, plasma) it was 68%; in the data set with Factor 11 protein (Day 38, plasma) it was 74%; in the data set with Factor 11 protein (Day 45, plasma) it was 79%. Further, the “Inhibition of Factor 11 protein relative to the PBS control (percentage reduction)” value in the data set on Factor 11 protein (Day 52, plasma) was 81%; in the data set on Factor 11 protein (Day 55, plasma), 81%; in the data set on Factor 11 protein (Day −5, plasma), 0%; in the data set with Factor 11 protein (Day −14, plasma), 4%. For the same substance, the Concentration in data set [2] amounted to 166 mg/mL. Besides, the Viscosity in data set [2] stood at 10 cP.

As to “ISIS 416858: MOE gapmer, nucleobases 1275 to 1318 of SEQ ID NO: 1 (Table 8) (antisense ACGGCATTGGTGCACAGTTT; MOE gapmer, wing and gap sizes not given here)”, the “Factor 11 protein levels in plasma” value in the data set with Factor 11 protein (cynomolgus monkeys, 25 mg/kg) was “time-dependent decrease in protein levels”. In the data set on blood coagulation (Day 10), the “PT ratio (INR)” value came out at 0.96 and the “aPTT ratio relative to PBS group” value came out at 1.07. Further, in the data set with blood coagulation (Day 17), the “PT ratio (INR)” value was found to be 0.98 and the “aPTT ratio relative to PBS group” value is on record as 1.13. Moreover, in the data set on blood coagulation (Day 24), the “PT ratio (INR)” value was 0.95 and the “aPTT ratio relative to PBS group” value was 1.21. In the data set with blood coagulation (Day 31), the “PT ratio (INR)” value is listed as 1.00 and the “aPTT ratio relative to PBS group” value is reported as 1.32. Also, in the data set with blood coagulation (Day 38), the “PT ratio (INR)” value is reported as 0.97 and the “aPTT ratio relative to PBS group” value is reported as 1.41. Besides, in the data set on blood coagulation (Day 45), the “PT ratio (INR)” value is 1.00 and the “aPTT ratio relative to PBS group” value was determined as 1.49. Moreover, in the data set on blood coagulation (Day 52), the “PT ratio (INR)” value was determined as 0.99 and the “aPTT ratio relative to PBS group” value is on record as 1.53. Further, in the data set with blood coagulation (Day 55), the “PT ratio (INR)” value came out at 1.01 and the “aPTT ratio relative to PBS group” value is 1.61. Also, in the data set on blood coagulation (Day −5), the “PT ratio (INR)” value is listed as 0.96 and the “aPTT ratio relative to PBS group” value was 0.96. In addition, in the data set with blood coagulation (Day −14), the “PT ratio (INR)” value was determined as 1.01 and the “aPTT ratio relative to PBS group” value worked out at 1.03. Besides, the “aPTT” value with blood coagulation (cynomolgus monkeys, 25 mg/kg) was “significantly prolonged”. In data set [3], this substance yielded an ALT of 640 IU/L, an AST of 547 IU/L, a Bilirubin of 0.28 mg/dL and a Cholesterol of 181 mg/dL. Further, in data set [4], the HCT was 50%, the Lymphocyte was 5480 cells/μL, the Neutrophil is 2229 cells/μL and the Platelets was 782 10^3/μL. Further, in data set [4], the RBC is reported as 9 10^6/μL, the WBC is reported as 8 10^3/μL, the hemoglobin is reported as 14 g/dL and the monocytes is reported as 248 cells/μL. The BUN in data set [5] was 23 mg/dL.

On to “ISIS 416864: MOE gapmer, nucleobases 1275 to 1318 of SEQ ID NO: 1 (Table 8) (antisense GGCAGCGGACGGCATTGGTG; MOE gapmer, wing and gap sizes not given here)”, for which, in data set [3], the ALT is reported as 36 IU/L, the AST amounted to 67 IU/L, the Bilirubin was determined as 0.19 mg/dL and the Cholesterol is 152 mg/dL. For the same substance, in data set [4], the HCT worked out at 52%, the Lymphocyte came out at 3921 cells/μL, the Neutrophil came out at 973 cells/μL and the Platelets is 750 10^3/μL. For the same substance, in data set [4], the RBC was 10 10^6/μL, the WBC was 5 10^3/μL, the hemoglobin is listed as 15 g/dL and the monocytes turned out to be 141 cells/μL. Also, the BUN in data set [5] is reported as 24 mg/dL.
